This passage reports lines tolerant results from US6750378B2, “Maize H3C4 promoter combined with the first intron of rice actin, chimeric gene comprising it and transformed plant” (Rhone-Poulenc Agro, priority 1997, dated 2004).

Assay [1] deals with maize lines transformed with corresponding gene with maize adh I intron. Nature of the assay: Comparative study of herbicide tolerance, maize lines transformed with the corresponding gene with maize adh I intron. Type of assay: in vivo. The following applies: 20 maize lines, spraying 200 g of active material per hectare (600 μg per tub). How it is done: (§1) 800 ml of Fontainebleau sand are placed in a tub of sides 15×20 cm. These tubs are then sprinkled with water and kept moist by supplying a nutrient solution consisting of 5 ml of Quinoligo (Quinoline) per liter of water. Twenty maize seeds are placed in the tubs, which are then treated with isoxaflutole by spraying at a rate of 100 g of active material per hectare (300 μg of active material per tub). The tubs are then cultured in a greenhouse. The phytotoxicity is determined 14 [lacuna] after planting. […] A comparative study was carried out with 20 maize lines transformed according to the invention and 20 maize lines transformed with a corresponding gene for which the sequence encoding the first intron of rice actin has been replaced with the sequence encoding the maize adh I intron. After treating by spraying very high doses of isoxafutole at a rate of 200 g of active material per hectare (600 μg of active material per tub), the following results are obtained: […]

Assay [2] deals with maize lines transformed according to the invention (H3C4 promoter + first intron of rice actin). Nature of the assay: Comparative study of herbicide tolerance, maize lines transformed according to the invention (rice actin intron). The following applies: 20 maize lines, spraying 200 g of active material per hectare (600 μg per tub). It counts as in vivo. On the procedure: as §1

Turning to `CS(=O)(=O)c1cc(C(F)(F)F)ccc1C(=O)c1cnoc1C1CC1` [isoxaflutole], the lines tolerant in assay [1] is recorded as 3/20; in assay [2], 8/20.
